Experimental data published in patent publication US5512564A, “Tricyclic thiazole and oxazole derivatives and pharmaceutical agents containing them” (priority 1991, dated 1996).

Key:
purified RT from HIV-1 = biological target: T1, purified RT from HIV-1 (Human immunodeficiency virus type 1 group M subtype B, UniProt P04585); experiment: Inhibition of Reverse Transcriptase (3H-thymidine-5'-triphosphate incorporation, 18mer oligonucleotide primer); type: biochemical; conditions: concentration causing 50% inhibition of the RT activity; HIV-1 RT expressed in E. coli
T1 construct: purified RT from HIV-1; made in house; host or cells: E. coli
Method: The screening test system comprises the purified RT from HIV-1 which was expressed by genetic engineering methods in E. coli as well as the components of the initiation complex and site complementary 18mer oligonucleotide as the primer. The ^3 H!-thymidine-5'-triphosphate incorporation was measured by counting in a β counter. The IC50 value is given in the following table for the investigated compounds. This value corresponds to that concentration of the test substance which causes a 50% inhibition of the RT activity.

[1] = treatment of AIDS; Hirsch, M. S. (1988); cited from earlier work

Structure (SMILES)	IC50 (purified RT from HIV-1) [µM]	therapeutic range (in words) [1]
Cc1cccc(C23SCCN2C(=O)c2cccnc23)c1 (stereo not drawn) [Example 13, 3a-m-Tolyl-2,3a-Dihydro-1H-3-Thia-4,8a-Diaza-Cyclopenta a!Inden-8-One]	4	–
O=C1c2cccnc2C2(c3ccccc3)SCCN12 (stereo not drawn) [Example 2, 3a-Phenyl-2,3a-Dihydro-1H-3-Thia-4,8a-Diaza-Cyclopenta a!Inden-8-One]	3.3	–
Cc1cccc(C23SCCN2C(=O)c2cccnc23)n1 (stereo not drawn) [Example 10, 3a-(6-Methyl-Pyridin-2-Yl)-2,3a-Dihydro-1H-3-Thia-4,8a-Diaza-Cyclopenta a!I nden-8-One]	6.6	–
Cc1cn([C@H]2C[C@H](N=[N+]=[N-])[C@@H](CO)O2)c(=O)[nH]c1=O [AZT, 3'-azido-3'-deoxythymidine]	–	very narrow therapeutic range
Cc1cc(C)nc(C23SCCN2C(=O)c2cccnc23)c1 (stereo not drawn) [Example 11, 3a-(4,6-Dimethyl-Pyridin-2-Yl)2,3a-Dihydro-1H-3-Thia-4,8a-Diaza-Cyclopenta a!Inden-8-One]	3.9	–
O=C1c2cccnc2C2(c3ccccn3)SCCN12 (stereo not drawn) [Example 9, 3a-Pyridin-2-Yl-2,3a-Dihydro-1H-3-Thia-4,8a-Diaza-Cyclopenta a!Inden-8-One]	23	–
Cc1cc(C)cc(C23SCCN2C(=O)c2nccnc23)c1 (stereo not drawn) [Example 5, 3a-(3,5-Dimethyl-Phenyl)-2,3a-Dihydro-1H-3-Thia-4,7,8a-Triaza-Cyclopenta a! Inden-8-One]	40	–
Cc1ccnc(C23SCCN2C(=O)c2cccnc23)c1 (stereo not drawn) [Example 8, 3a-(4-Methyl-Pyridin-2-Yl)-2,3a-Dihydro-1H-3-Thia-4,8a-Diaza-Cyclopenta a!I nden-8-One]	4.6	–
O=C1c2ccncc2C2(c3ccccc3)SCCN12 (stereo not drawn) [Example 7, 3a-Phenyl-2,3a-Dihydro-1H-3-Thia-5,8a-Diaza-Cyclopenta a!Inden-8-One]	17	–
